Results published in US12576155B2, “Senolytic and antiinflammatory prodrugs and methods of use thereof” (priority 2019, dated 2026).

Assays:
p38 MAPK = experiment: Western blotting of phos-p38 MAPK in senescent cells; assay type: cell-based, mouse; conditions: 0.5 μM SSK1, after 36 hours of treatment
Protocol: Senescent NBF cells were plated and incubated overnight at 37° C. The cells were treated with 0.05 μM gemcitabine or 0.5 μM SSK1 prodrug for the indicated time. Before harvest, cells were washed twice with pre-cooled PBS buffer. Total protein was extracted with lysis buffer (50 mM Tris-HCl (pH 7.5), 137 mM sodium chloride, 1 mM EDTA, 1% Nonidet P-40, 10% glycerol, 0.1 mM sodium orthovanadate, 10 mM sodium pyrophosphate, 20 mM β-glycerophosphate, 50 mM sodium fluoride, 1 mM phenylmethylsulfonyl fluoride), and the protein concentrations were normalized using the BCA Protein Assay Kit (Pierce). Protein samples were mixed with protein loading buffer and incubated at 95° C. for 5 min. Western blotting was performed by using the following antibodies: phospho-specific p38 MAPK (Thr180/Tyr182) (Cell Signaling Technology, CST, catalog number 4511) and p38 (CST, catalog number 8690); phospho-histone H2A.X (Ser139) (CST, catalog number 9718) and histone H2A.X (CST, catalog number 7631). The β-tubulin protein level was also determined as the loading control by using the β-tubulin antibody (CST, catalog number 2128).

senescent cells = experiment: Flow cytometry of apoptosis (annexin V / propidium iodide) in senescent cells; assay type: cell-based; conditions: SSK1-treated senescent cells; after 36 hours of treatment
Protocol: Fibroblasts were digested into single cell suspensions by incubation with 0.25% trypsin-EDTA (Invitrogen) at 37° C. for 3-5 min or with accutase at 37° C. for 10 min. Cells were then stained with FITC annexin V and propidium iodide (PI) according to the manufacturer's protocol (FITC Annexin V Apoptosis Detection Kit I, BD Pharmingen™). For chondrocytes Annexin V/7-AAD analysis, the trypsinized live chondrocytes and floating cells were collected, centrifuged and washed with PBS. Cells were stained with the Annexin V Apoptosis Detection Kit (Biolegend, 640934) according to the manufacturer's instruction. Before the flow cytometric analysis, the precision count beads (Biolegend, 424902) were added to count the absolute live cell numbers. Flow cytometry was performed within one hour on an Aria III (BD Biosciences) or FACSVerse (BD Biosciences). Data were analyzed using FlowJo software (FlowJo LLC).

[1] = system: human senescent fibroblasts induced by different stimuli; experiment: Cell viability, senescent and non-senescent human embryonic fibroblasts (HEFs); assay type: cell-based
Protocol: Human embryonic skin fibroblasts (HEFs) were obtained as previously described. Briefly, human embryonic skin tissues, obtained from aborted tissue with informed patient consent, were minced with forceps and incubated in 1 mg/ml collagenase IV for 1-2 hours at 37° C. After enzyme treatment, cells were collected by centrifugation and resuspended in HEF medium (Dulbecco's modified Eagle's medium (DMEM, Gibco) containing 10% fetal bovine serum (FBS, Ausbian), 1% GlutaMAX (Gibco), 1% Non-Essential Amino Acids (NEAA, Gibco) and 1% penicillin/streptomycin (Gibco). Cells were plated on 10 cm tissue culture dishes and grown in 10% FBS DMEM.
(§1) For replication-induced senescence, cells were passaged until they lost the ability to proliferate and became senescent. NBFs were used as senescent cells after approximately 8-9 passages or 12 population doublings. HEFs were used after approximately 35 passages or 50 population doublings. HUVECs were senescent after approximately 18 passages or 24 population doublings.
For ionizing radiation-induced senescence, MEFs and HEFs were exposed to 10 Gy of ionizing irradiation in an RS 2000 X-ray Biological Irradiator (Rad Source Technologies, Inc.) at a dose rate of 1.205 Gy/min. The day after irradiation, MEFs or HEFs were passaged at a 1:3 dilution and cultured for another three days. Then these cells were plated to carry out further experiments.
For etoposide-induced senescence, MEFs were treated with 2 μM etoposide for 20 hours, and HEFs were treated with 10 μM etoposide for 12-18 hours. Three days after treatment, cells were sub-cultured at a 1:3 ratio for 72 hours in a fresh medium before further analysis.
To test the viability of senescent and non-senescent cells treated with SSK1, cells were stained with a mixture of Hoechst 33342 and propidium iodide (PI) (CA1120, Solarbio) to distinguish living and dead cells. […] The plate was incubated at 4° C. for 30 min and observed on a fluorescence microscope or automatic cell imaging system. Viable cells were quantified using a MD Image Xpress Micro XL (Molecular Devices).

[2] = system: senescent human umbilical vein endothelial cells (HUVECs); experiment: Cell viability, senescent and non-senescent HUVECs; assay type: cell-based; conditions: replication-induced senescent vs non-senescent HUVECs; increasing doses
Text: as §1
To test the viability of senescent and non-senescent cells treated with SSK1, cells were stained with a mixture of Hoechst 33342 and propidium iodide (PI) (CA1120, Solarbio) to distinguish living and dead cells. After treatment with the small molecules, the cell culture medium was removed, and the cells were washed once with PBS. Then, the cells were stained according to the manufacturer's protocol, where the final concentrations of Hoechst 33342 and PI were 5 μg/ml and 2 μg/ml in PBS buffer. The plate was incubated at 4° C. for 30 min and observed on a fluorescence microscope or automatic cell imaging system. Viable cells were quantified using a MD Image Xpress Micro XL (Molecular Devices).

SMILES: CC(=O)OCC1O[C@@H](Oc2ccc(COC(=O)Nc3ccn([C@@H]4O[C@H](CO)C(O)C4(F)F)c(=O)n3)cc2[N+](=O)[O-])C(OC(C)=O)C(OC(C)=O)[C@H]1OC(C)=O (some centres unmarked) [SSK1]
- State of p38 MAPK (phosphorylation) (p38 MAPK): activated p38 MAPK by phosphorylation
- Apoptosis (annexin V / PI) (senescent cells): induced apoptosis in senescent cells
- Clearance of senescent cells ([1]; senescent HEFs induced by different stresses vs non-senescent counterparts): cleared by SSK1
- Percentage of cell viability in senescent cell populations ([1]; vehicle or treated senescent HEFs, FIG. 2F): dose dependent decrease of senescent cells
- Selective killing of senescent cells (viability) [2]: selectively killed by SSK1
